Reference: patent publication US20240043448A1, “Small Molecule Inhibitors of KRAS G12C Mutant” (Merck Sharp & Dohme LLC, priority 2019, published 2024)
Read-outs that look alike come from different tables or passages of the source.

Assays:
[1] = target: Biotinylated KRAS G12C protein (Homo sapiens (Human), UniProt P01116, C118S/C51S/C80L/G12C); assay: SOS-catalyzed nucleotide exchange assay (TR-FRET); type: biochemical; settings: in vitro apparent potency; preincubation time of 60 minutes prior to addition of SOS
Protocol: The SOS-catalyzed nucleotide exchange assay utilizes a preformed complex of recombinant biotinylated KRAS protein containing G12C/C51S/C80L/C118S mutations (183 amino acids; biotin on K10; leader sequence which is an AviTag; referred to as SEQ ID NO: 1 or “Biotinylated KRAS G12C protein” hereafter), Bodipy-GDP, and Terbium-streptavidin. Compounds are added to this complex and then after incubation for 60 minutes, the mixture is treated with recombinant SOS protein and unlabeled GTP. Small molecule inhibitors stabilize the Bodipy-GDP complex whereas the untreated protein rapidly exchanges Bodipy-GDP for unlabeled GTP resulting in reduced TR-FRET signal.
Biotinylated KRAS G12C protein (SEQ ID NO: 1) is diluted to 2 μM in an EDTA buffer (20 mM HEPES, 150 mM sodium chloride, 10 mM EDTA, and 0.01% Tween) and incubated at room temperature for one hour. This mixture is then further diluted to 90 nM in an assay buffer (20 mM HEPES, 150 mM sodium chloride, 10 mM magnesium chloride, and 0.005% Tween) containing 15 nM of Terbium-Streptavidin (Invitrogen, catalog #PV3577) and 900 nM of Bodipy-GDP and incubated at room temperature for six hours. This solution is referred to as Biotinylated KRAS G12C mixture.
Each test compound (10 mM stock in DMSO) is diluted in DMSO to make a 10-point, 3-fold dilution series in a 384-well low dead volume microplate (Labcyte, catalog #LP-0200). Once titrations are made, 10 nL of the diluted compounds is acoustically dispensed into a 384-well plate (Corning, catalog #3820) using an Echo 550 (Labcyte).
Each well of the plate receives 3 μL Biotinylated KRAS G12C mixture that had been incubating for six hours and 3 μL of assay buffer using a BioRAPTR (Beckman Coulter) and is incubated at room temperature for 60 minutes. Each well then receives 3 μL of 240 nM recombinant human SOS protein and 9 mM GTP (Sigma, G8877) in assay buffer and is incubated at room temperature for 60 minutes.
The time-resolved fluorescence resonance energy transfer signal of the plate is measured on an Envision (PerkinElmer) plate reader: Excitation filter=340 nm; emission1=495 nm; emission2=520 nm; dichroic mirror=D400/D505; delay time=100 μs. The signal of each well is determined as the ratio of the emission at 520 nm to that at 495 nm. Percent effect of each well is determined after normalization to control wells containing DMSO (no effect) or a saturating concentration of inhibitor (max effect). The apparent effect as a function of compound concentration is fit to a four parameter logistic equation.

phospho-ERK = assay: Cellular phospho-ERK assay; type: cell-based; settings: NCI-H358 cells, 2 hour incubation, ratio of p-Erk vs total Erk, read-out: IC50 (nM) pERK (Cell)
Protocol: NCI-H358 cells (ATCC® CRL-5807™) were cultured in T150 flask in growth medium (RPMI medium 1640-GlutaMAX™-I (ThermoFisher Scientific 61870) containing 10% fetal bovine serum (ThermoFisher Scientific 10091148)). The cells were harvested in growth medium after TrypLE (ThermoFisher scientific 12604021) digestion and were seeded in a 384-well collagen coated cell culture plate (Corning 356702) at a density of 15,000 cells/well, and incubated at 37° C., 5% CO2 overnight. The compound dose-response titrations were prepared and appropriate amounts of compounds were dispensed in a 384-well intermediate plate using an Echo 550 liquid handler. RPMI medium 1640-GlutaMAX™-I were added to the intermediate plate and transferred to 384-well cell culture plate, which was incubated at 37° C., 5% CO2 for 2 hours. After removal of medium from the plate, cells were lysed in lysis buffer from Alpha SureFire® Ultra™ Multiplex p-Erk and total Erk assay kit (PerkinElmer MPSU-PTERK) containing Halt™ Protease and Phosphotase inhibitor cocktail (ThermoFisher Scientific 78446) at room temperature with constant shaking at 300 rpm for 30 minutes. The cell lysates were then transferred to OptiPlate-384 plate (PerkinElmer 6005620) and the phosphorylation of Erk and total Erk levels were detected by Alpha SureFire Ultra Multiplex p-Erk kit (PerkinElmer MPSU-PTERK) following the manufacturer's protocol. Assay plates were read on an EnVision Multimode Plate Reader (PerkinElmer), and the ratio of p-Erk vs total Erk in each well was used as the final readout. Dose response curves were analyzed using a 4-parameter logistic model to calculate IC50 values using spotfire software.

Molecule | IC50 [1] | IC50 (phospho-ERK; Homo sapiens, NCI-H358, 2 h) | IC50 (phospho-ERK)
C=CC(=O)N1CCN(c2nc(=O)n3c4nc(c(F)cc24)-c2c(F)cccc2CCCOc2ccnc(C(C)C)c2-3)[C@@H](C)C1 (single isomer, unassigned) [Example 20b] | 1380 nM | – | 4760 nM
C=CC(=O)N1C[C@H](C)N(c2nc(=O)n3c4nc(c(F)cc24)-c2c(Cl)cccc2OCCOc2ccnc(C(C)C)c2-3)C[C@H]1C [Example 83, 17-chloro-2-[(2S,5R)-2,5-dimethyl-4-(prop-2-enoyl)piperazin-1-yl]-20-fluoro-6-(propan-2-yl)-11,12-dihydro-4H-1,18-(ethanediylidene)pyrido[4,3-e]pyrimido[1,6-g][1,4,7,9]benzodioxadiazacyclododecin-4-one] | 11 nM | 8.9 nM | –
17,20-difluoro-2-[(2S)-2-methyl-4-(prop-2-enoyl)piperazin-1-yl]-6-(propan-2-yl)-10,11,12,13-tetrahydro-4H-1,18-ethenopyrido[4,3-e]pyrimido[1,6-g][1,7,9]benzotriazacyclododecin-4-one [Example 112] | 23 nM | – | 26 nM
C=CC(=O)N1CCN(c2nc(=O)n3c4nc(c(F)cc24)-c2c(F)cccc2OCCCc2ccnc(C(C)C)c2-3)C(C)(C)C1 [Example 102, 2-[2,2-dimethyl-4-(prop-2-enoyl)piperazin-1-yl]-17,20-difluoro-6-(propan-2-yl)-11,12-dihydro-4H,10H-1,18-ethenopyrido[4,3-e]pyrimido[1,6-g][1,7,9] benzoxadiazacyclododecin-4-one] | 35 nM | 149 nM | –
C=CC(=O)N1CCN(c2nc(=O)n3c4nc(c(F)cc24)-c2c(F)cccc2OCCCc2ccnc(C(C)C)c2-3)[C@@H](C)C1 (single isomer, unassigned) [Example 10a] | 4.3 nM | – | 6.7 nM
C=CC(=O)N1CCN(c2nc(=O)n3c4nc(c(F)cc24)-c2c(F)cccc2OCCCOc2ccnc(C(C)C)c2-3)[C@@H](C)C1 [Example 1a, 18,21-difluoro-2-[(2S)-2-methyl-4-(prop-2-enoyl)piperazin-1-yl]-6-(propan-2-yl)-12,13-dihydro-4H,11H-1,19-ethenopyrido[4,3-f]pyrimido[1,6-h][1,5,8,10]benzodioxadiazacyclotridecin-4-one] | 11 nM | – | 21 nM
C=CC(=O)N1C[C@H](C)N(c2nc(=O)n3c4nc(c(F)cc24)-c2c(F)ccc(F)c2OCCOc2ccnc(C4CC4)c2-3)C[C@H]1C [Example 111, 6-cyclopropyl-2-[(2S,5R)-2,5-dimethyl-4-(prop-2-enoyl)piperazin-1-yl]-14,17,20-trifluoro-11,12-dihydro-4H-1,18-ethenopyrido[4,3-e]pyrimido[1,6-g][1,4,7,9]benzodioxadiazacyclododecin-4-one] | 17 nM | – | 154 nM

Further molecules by falling IC50 [1], results first:

IC50 [1] | IC50 (phospho-ERK; Homo sapiens, NCI-H358, 2 h) | IC50 (phospho-ERK) | Molecule
10 nM | – | 20 nM | C=CC(=O)N1CC(C)N(c2nc(=O)n3c4nc(c(F)cc24)-c2c(F)ccc4cnn(c24)CCCCc2ccnc(C(C)C)c2-3)CC1C [Example 107, 2-[(2S,5R)-2,5-dimethyl-4-(prop-2-enoyl)piperazin-1-yl]-19,22-difluoro-6-(propan-2-yl)-10,11,12,13-tetrahydro-4H-1,20-(ethanediylidene)pyrido[4′,3′:12,13]pyrimido[1′,6′:1,2][1,3,7]triazacyclotridecino[5,6,7-hi]indazol-4-one]
6.9 nM | – | 34 nM | C=CC(=O)N1[C@H](C)CN(c2nc(=O)n3c4nc(c(F)cc24)-c2c(F)cccc2OCCCCc2ccnc(C(C)C)c2-3)C[C@@H]1C [Example 7, 2-[(3R,5S)-3,5-dimethyl-4-(prop-2-enoyl)piperazin-1-yl]-18,21-difluoro-6-(propan-2-yl)-10,11,12,13-tetrahydro-4H-1,19-ethenopyrido[4,3-f]pyrimido[1,6-h][1,8,10]benzoxadiazacyclotridecin-4-one]
4.3 nM | – | 11 nM | C=CC(=O)N1C[C@H](C)N(c2nc(=O)n3c4nc(c(C)cc24)-c2c(F)ccc(F)c2OCCCc2ccnc(C(C)C)c2-3)C[C@H]1C (single isomer, unassigned) [Example 120]
3.5 nM | 54 nM | – | C=CC(=O)N1C[C@H](C)N(c2nc(=O)n3c4nc(c(F)cc24)-c2c(ccc(F)c2F)OCC2(CCc4ccnc(C(C)C)c4-3)CC2)C[C@H]1C [Example 62, 2′-[(2S,5R)-2,5-dimethyl-4-(prop-2-enoyl)piperazin-1-yl]-17′,18′,21′-trifluoro-6′-(propan-2-yl)-10′,11′-dihydro-4′H,13′H-spiro[cyclopropane-1,12′-[14]oxa [3,5,7,20]tetraaza[1,19] (ethanediylidene)pyrido[4,3-f]pyrimido[1,6-h][1,8,10]benzoxadiazacyclotri-decin]-4′-one]
2.6 nM | 7 nM | – | C=CC(=O)N1CCN(c2nc(=O)n3c4nc(c(F)cc24)-c2c(F)ccc(F)c2OCCCCc2ccnc(C(C)C)c2-3)[C@@H](C)C1 [Example 79, 15,18,21-trifluoro-2-[(2S)-2-methyl-4-(prop-2-enoyl)piperazin-1-yl]-6-(propan-2-yl)-10,11,12,13-tetrahydro-4H-1,19-(ethanediylidene)pyrido[4,3-f]pyrimido[1,6-h][1,8,10]benzoxadiazacyclotridecin-4-one]
2.4 nM | – | 16 nM | C=CC(=O)N1CC(C)N(c2nc(=O)n3c4nc(c(F)cc24)-c2c(ccc(F)c2F)OCC(F)(F)CCc2ccnc(C(C)C)c2-3)CC1C [Example 54, (5aRa,18aRa)-2-[(2S,5R)-2,5-dimethyl-4-(prop-2-enoyl)piperazin-1-yl]-12,12,17,18,21-pentafluoro-6-(propan-2-yl)-10,11,12,13-tetrahydro-4H-1,19-(ethanediylidene)pyrido[4,3-f]pyrimido[1,6-h][1,8,10]benzoxadiazacyclotridecin-4-one]
2.3 nM | – | 21 nM | C=CC(=O)N1CC(C)N(c2nc(=O)n3c4nc(c(Cl)cc24)-c2c(F)cccc2COCCc2ccnc(C(C)C)c2-3)CC1C [Example 109, 20-chloro-2-[(2S,5R)-2,5-dimethyl-4-(prop-2-enoyl)piperazin-1-yl]-17-fluoro-6-(propan-2-yl)-10,11-dihydro-1,18-ethenopyrido[3,4-e]pyrimido[6,1-c][9,2,4]benzoxadiazacyclododecin-4(13H)-one]
1.1 nM | 8 nM | – | C=CC(=O)N1CC(C)N(c2nc(=O)n3c4nc(c(F)cc24)-c2c(F)cc(F)cc2OCC(F)(F)CCc2ccnc(C(C)C)c2-3)CC1C [Example 56, (5aRa,18aRa)-2-[(2S,5R)-2,5-dimethyl-4-(prop-2-enoyl)piperazin-1-yl]-12,12,16,18,21-pentafluoro-6-(propan-2-yl)-10,11,12,13-tetrahydro-4H-1,19-(ethanediylidene)pyrido[4,3-f]pyrimido[1,6-h][1,8,10] benzoxadiazacyclotri-decin-4-one]
